Reference: US11903958B2, “Therapeutic agents and methods of producing same” (GLYCOSYNNOVATIONS PTY LTD, priority 2016, dated 2024)

How the values were obtained:
recombinant human IL-13 = recombinant human IL-13 (Homo sapiens, UniProt P35225); assay: TF-1 cell proliferation bioassay with rhIL-13; format: cell-based; conditions: rhIL-13 4 ng/ml; inhibitor 10 μg/ml and 2.5 μg/ml; 48 hours; FIG. 1
Procedure: The various simplified sulphated glycoconjugates inhibited the proliferation of an IL-13 responsive cell line to differing degrees. This occurs at very low doses and is believed not to be due to a toxic effect of the glycoconjugates because other, similarly sulfated polysaccharides (e.g. sucrose octasulfate), at the same concentrations of IL-13 and polysaccharide have no effect. These experiments utilize the TF-1 cells that are grown in 2 ng/ml recombinant human (rh) GM-CSF. TF-1 cells were originally established from a bone marrow sample from a person with severe pancytopenia. These cells are dependent on IL-3 or GM-CSF for long term growth and are responsive to a variety of human cytokines including IL-13.
(§1) Briefly, proliferation assays were carried out in 96-well microplates suitable for such assays. […] When the effect of the different simplified sulfated glycoconjugates was measured, the wells also contained various concentrations of these molecules (10 μg/ml and 2.5 μg/ml) and the rhIL-13 concentration was held constant at 4 ng/ml. The cells proliferated for 48 hours, after which the number of cells present was quantified by staining with 20 μL per well of the CellTiter 96 Aqueous One reagent was incubated with TF1 cells for the last 3.5 to 4 hours of culture and then absorbance was read at 490 nm on an Enspire Multimode plate reader (PerkinElmer).

recombinant human IL-4 = biological target: T1, recombinant human IL-4 (Homo sapiens, UniProt P05112); assay: TF-1 cell proliferation bioassay with rhIL-4; format: cell-based; conditions: rhIL-4 4 ng/ml; inhibitor 10 μg/ml and 2.5 μg/ml; 48 hours; FIG. 3
T1 sequence (P05112 25-153): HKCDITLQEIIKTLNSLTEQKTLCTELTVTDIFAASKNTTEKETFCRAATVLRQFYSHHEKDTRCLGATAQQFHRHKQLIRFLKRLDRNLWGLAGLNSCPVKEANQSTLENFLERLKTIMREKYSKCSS
Procedure: The various simplified sulphated glyconjugates inhibited the proliferation of an IL-4 responsive cell line to differing degrees. This occurs at very low doses and is not due to a toxic effect of the glycoconjugate because other, similarly sulfated polysaccharides (sucrose octasulfate), at the same concentrations of IL-4 and polysaccharide have no effect. These experiments utilize the TF-1 cells that are grown in 2 ng/ml recombinant human (rh) GM-CSF. TF-1 cells were originally established from a bone marrow sample from a person with severe pancytopenia. These cells are dependent on IL-3 or GM-CSF for long term growth and are responsive to a variety of human cytokines including human IL-4.
as §1, with “rhIL-4” for “rhIL-13”

Sequence of recombinant human IL-13 (P35225 25-146): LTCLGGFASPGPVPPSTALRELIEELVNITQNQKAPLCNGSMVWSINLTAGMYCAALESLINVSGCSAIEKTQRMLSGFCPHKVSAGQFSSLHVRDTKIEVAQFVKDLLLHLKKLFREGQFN

O=S(=O)(O)OC[C@H]1O[C@@](COS(=O)(=O)O)(O[C@H]2O[C@H](COS(=O)(=O)O)[C@@H](OS(=O)(=O)O)[C@H](OS(=O)(=O)O)[C@H]2OS(=O)(=O)O)[C@@H](OS(=O)(=O)O)[C@@H]1OS(=O)(=O)O [sucrose octasulfate]
inhibition of IL-13 stimulated TF-1 cell proliferation (recombinant human IL-13): no effect | inhibition of IL-4 stimulated TF-1 cell proliferation (recombinant human IL-4): no effect
